Reference: article PMC9599717, “The Multicellular Effects of VDAC1 N-Terminal-Derived Peptide” (Biomolecules, 2022)

Test system: U-87MG cells
Assay: Immunoblotting of protein expression in peptide-treated cells
Type: cell-based, human
Conditions: 12 h
Experimental: U-87 MG cells were treated with the indicated concentrations of D-Δ(1-18)N-Ter-Antp peptide in serum-free DMEM for 6 h. Then cells were lysed in lysis buffer (100 mM Tris/HCl pH 8.0, 5% sodium dodecyl sulfate [SDS]), supplemented with a protease inhibitor cocktail (Calbiochem, San Diego, CA, USA). The lysates were vortexed and heated at 70 °C for 10 min. Finally, cell lysates were centrifuged (15,000× g, 10 min at 4 °C), and the protein concentration of the supernatant was determined according to the Lowry assay with a slight modification. Protein samples were stored at −80 °C until subsequent gel electrophoresis. Protein samples (20 μg) were resolved by SDS-polyacrylamide gel electrophoresis and immunoblotted using selected primary antibodies (sources and dilutions are listed in Table S1), followed by incubation with appropriate horseradish peroxidase (HRP)-conjugated secondary antibodies (Table S1). Proteins were detected using the EZ-ECL Enhanced Chemiluminescence Detection Kit (Biological Industries, Beit Haemek, Israel). Band intensities were analyzed with densitometry using FUSION-FX software (Vilber Lourmat, Collegien, France), and the values were normalized to β-actin.
Figure 3 The D-Δ(1-18)N-Ter-Antp peptide induced autophagy and cellular senescence and altered the expression of apoptosis-related proteins. (A,B) U-87MG cells were treated with the indicated concentrations of D-Δ(1-18)N-Ter-Antp peptide for 12 h and then were subjected to immunoblotting for caspase-9, AIF, Bcl-xL, Bcl-2, and Bax and the relative expression level was quantified (B). (C,D) U-87MG cells were treated with the indicated concentrations of D-Δ(1-18)N-Ter-Antp peptide for 12 h and then subjected to immunoblotting for the autophagy markers LC3-I and LC3-II (C) and LC3-II quantification (D). (E,F) U-87MG cells were treated with the indicated concentrations of D-Δ(1-18)N-Ter-Antp peptide for 12 h and then subjected to β-gal activity (blue). Mouse embryonic fibroblast cells at passage 10 (MEF-P10) served as a positive control of senescent cells. Quantification of β-gal staining intensity (F). Data are presented as the mean ± SD, n = 3, * p < 0.05; ** p < 0.01; *** p < 0.001 versus control group. NS, non-specific. The images were captured at 40× and two folds enlargement is shown.
Figure 4 The D-Δ(1-18)N-Ter-Antp induced the altered expression of metabolism and signaling-related proteins. (A,B) U-87MG cells were treated with the indicated concentrations of D-Δ(1-18)N-Ter-Antp peptide at the indicated concentration for 12 h and then subjected to immunoblot analyses of cell lysates for VDAC1, HK-I, ATPsyn5a, and citrate synthase (CS) (A). Quantification of the immunoblot (B). (C–E) Immunoblotting of the indicated proteins c-Jun, NF-κB-p65, p53, CDK2 and IkB-a (C) and their quantitative analysis (D,E). The results were from triplicates of different biological repeats (n = 3) and are presented as the means ± SEM. * p ≤ 0.05; ** p ≤ 0.01; *** p ≤ 0.001.

[1] = immunoblot normalized to β-actin, n = 3

19-FTKGYGFGL-26- RQIKIWFQNRRMKWKK [D-Δ(1-18)N-Ter-Antp]
Autophagy, appearance of LC3-II (immunoblot for LC3-I and LC3-II): induced | Decrease of expression of IκBα [1]: 2 fold | Decrease of expression of cyclin-dependent kinase 2 (CDK-2) [1]: 2 fold | Enhanced expression of c-Jun [1]: 6 fold | Enhanced expression of nuclear factor kappa B (NF-κB p65) [1]: 3.5 fold | Enhanced expression of p53 [1]: 3 fold
